Results taken from patent publication US11732018B2, “Cancer antigen helper peptide” (priority 2009, dated 2023).
Ends that are not written are not given here.

How the values were obtained:
C1498 cells = assay: Proliferation reaction of WT1 peptide-specific cell lines to C1498 stimulator cells (3H incorporation); assay type: cell-based, mouse; details: irradiated C1498 stimulators; FIG. 3
Method: As described above, spleen cells were stimulated in vitro 3 times at intervals of 10 days using spleen cells of non-immunized mice, which were pulsed with each WT1 peptide and irradiated. Then, the proliferation reaction was measured by ^3H incorporation using irradiated C1498 cells not expressing any WT1 protein, C1498 cells pulsed with each of the above WT1 peptides, or C1498 cells expressing a WT1 protein by introduction of a WT1 gene, as a stimulator.

[1] = tested on: spleen cells of immunized mice; assay: WT1 peptide-specific cell lines, cell proliferation ability (3H incorporation); assay type: cell-based, mouse; details: for proliferation reaction with MHC class I antibody or MHC class II antibody added (3H incorporation): 4th stimulation with peptide-pulsed stimulator, antibody added to the culture solution, FIG. 2A-2C; for proliferation reaction in response to stimulator pulsed with the peptide (3H incorporation): spleen cells of mice immunized with the same peptide, 4th stimulation with irradiated peptide-pulsed spleen cells of non-immunized mice, FIG. 1A-1C
Method: First, the above WT1 peptides were emulsified with a Freund's incomplete adjuvant (Montanide ISA 51), and mice were intradermally inoculated with each WT1 peptide in an amount corresponding to 100 μg/mouse. The immunization was carried out 3 times at intervals of one week, the spleen was removed after 1 week of the final immunization, and spleen cells were prepared. The spleen cells were stimulated 3 times at intervals of 10 days using spleen cells of non-immunized mice, which were pulsed with the same WT1 peptide as that used for immunization of each mouse and irradiated, as a stimulator. Then, the 4th stimulation was carried out using spleen cells of non-immunized mice, which were pulsed with each peptide (WT13 5, WT18 6 or WT12 9 4 peptide) as shown in Table 7 and irradiated, as a stimulator, and proliferation reaction in response to each stimulator was measured by a ^3H incorporation experiment. An OVA (ovalbumin) peptide irrelevant to WT1 peptides was used as a control peptide. As a result, mouse spleen cells immunized with a WT13 5 peptide, a WT18 6 peptide or a WT12 9 4 peptide each responded to the stimulator pulsed with a WT13 5 peptide, a WT18 6 peptide or a WT12 9 4 peptide, and proliferated (FIG. 1A to 1C).
As described above, spleen cells were stimulated in vitro 3 times at intervals of 10 days using spleen cells of non-immunized mice, which were pulsed with each WT1 peptide and irradiated. When the 4th stimulation was then carried out using spleen cells of non-immunized mice, which were pulsed with each peptide described above and irradiated, as a stimulator, and proliferation reaction was measured, an MHC class I antibody (D^b antibody) or an MHC class II antibody (Ab antibody) was added to the culture solution and ^3H incorporation was measured.

[2] = tested on: RMAS cells pulsed with a WT1126 peptide (MHC class I); assay: WT1-specific immune response in spleen cells of tumor-implanted mice (cytotoxic activity, WT1 tetramer FACS); assay type: in vivo, mouse
Method: Next, mice were dissected on the 29th day after starting the above experiment, the spleen was excised, and a WT1-specific immune response was analyzed using spleen cells. Briefly, the spleen was excised when mice of the WT13 5 helper peptide (MHC class II)-immunized group and the control group were dissected, and spleen cells were prepared. The spleen cells were stimulated once with a WT11 2 6 peptide (MHC class I), and on the 6th day after the stimulation, cytotoxic activity of the spleen cells was measured using RMAS cells pulsed with a WT11 2 6 peptide (MHC class I) as a target cell. As a control, the cytotoxic activity of the spleen cells was measured using RMAS cells as a target cell. […] The WT1-specific cytotoxic T cells were not induced in one mouse. Also, it was clear that the induction of the WT1-specific cytotoxic T cells was lower as compared with the WT13 5 helper peptide (MHC class II)-immunized group (FIGS. 9 and 10).
Next, specific cytolysis was analyzed in mice of the above WT135 helper peptide (MHC class II)-immunized group and control group. […] Also, the above-prepared spleen cells and a fluorescence-labeled WT1 tetramer (H-2 Db WT1 Tetramer-[…]-PE) were incubated at 4° C. for 20 minutes, washed, then stained with fluorescence-labeled CD3 and CD8 antibodies, again washed, and analyzed by FACS. […]

Row | Sequence | proliferation reaction in response to C1498 cells pulsed with peptide or expressing a WT1 protein (3H incorporation) (C1498 cells) | proliferation reaction with MHC class I antibody or MHC class II antibody added (3H incorporation) [1] | proliferation reaction in response to stimulator pulsed with the peptide (3H incorporation) [1] | WT1-specific cytotoxic T cells (specific cytolysis; CD3-, CD8- and WT1 tetramer-positive cells) versus control group ([2]; spleen cells of tumor-implanted mice, p<0.05, FIG. 11) | induction of WT1-specific cytotoxic T cells (cytotoxic activity of spleen cells) ([2]; spleen excised on 29th day, stimulated once with WT1126 peptide, measured on 6th day, FIG. 9)
1 | EQCLSAFTLHFSGQFTG (listed as Mus musculus) [WT186] | produced by an intracellular process of an endogenous WT1 protein and displayed on an MHC class II molecule | suppressed by the addition of an MHC class II antibody | proliferated | – | –
2 | FRGIQDVRRVSGVAPTLVR (listed as Mus musculus) [WT1294] | produced by an intracellular process of an endogenous WT1 protein and displayed on an MHC class II molecule | suppressed by the addition of an MHC class II antibody | proliferated | – | –
3 | WAPVLDFAPPGASAYGSL [WT135] | – | – | – | significantly high | induced in all 4 mice
